Measurements reported in paper PMC4511007 (PLoS ONE, 2015).
Read-outs that look alike come from different tables or passages of the source.

Experiments:
VRV-PLA2-VIII = VRV-PLA2-VIII (Daboia russelii, UniProt P59071); assay: biochemical; set-up: species or system Vipera russelli
RV venom PLA2 = assay: Indirect haemolytic activity (RV venom PLA2 inhibition); format: biochemical, Vipera russelli; details: 1 μg RV venom pre-incubated with compound 10 min at 37°C, NS: Not Significant

Sequence of VRV-PLA2-VIII (P59071 whole entry, looked up): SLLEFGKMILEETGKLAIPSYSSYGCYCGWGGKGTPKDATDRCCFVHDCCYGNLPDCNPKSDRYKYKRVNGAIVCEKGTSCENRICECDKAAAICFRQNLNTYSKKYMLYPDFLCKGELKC

SMILES: CC(=O)c1c(C)nc2c(-c3cccc(Cl)c3)cccn12 [3d, 1-(8-(3-chlorophenyl)-2-methylimidazo[1,2-a]pyridin-3-yl)ethanone]
- IC50 (VRV-PLA2-VIII): 89.1 µM
- IC50 (RV venom PLA2): 59.1 µM
- melting point: 114 to 116 °C

SMILES: COc1cccc(-c2cccn3c(C(C)=O)c(C)nc23)c1F [3i, 1-(8-(2-fluoro-3-methoxyphenyl)-2-methylimidazo[1,2-a]pyridin-3-yl)ethanone]
- IC50 (VRV-PLA2-VIII): 135 µM
- IC50 (RV venom PLA2): 123 µM
- melting point: 190 to 192 °C

SMILES: CC(=O)c1c(C)nc2c(-c3cccc4ccccc34)cccn12 [3f, 1-(2-methyl-8-(naphthalen-1-yl)imidazo[1,2-a]pyridin-3-yl)ethanone]
- IC50 (VRV-PLA2-VIII): 23.1 µM
- IC50 (RV venom PLA2): 14.3 µM
- melting point: 179 to 182 °C

SMILES: CC(=O)c1c(C)nc2c(-c3ccc(Cl)cc3)cccn12 [3g, 1-(8-(4-chlorophenyl)-2-methylimidazo[1,2-a]pyridin-3-yl)ethanone]
- IC50 (VRV-PLA2-VIII): 195 µM
- IC50 (RV venom PLA2): 219 µM
- melting point: 111 to 114 °C

SMILES: CC(=O)c1c(C)nc2c(-c3ccc(OCc4ccccc4)c(F)c3)cccn12 [3b, 1-(8-(4-(benzyloxy)-3-fluorophenyl)-2-methylimidazo[1,2-a]pyridin-3-yl)ethanone]
- IC50 (VRV-PLA2-VIII): 140 µM
- IC50 (RV venom PLA2): > 500 µM
- melting point: 154 to 156 °C

SMILES: CC(=O)c1c(C)nc2c(-c3ccc(Cl)c(C(F)(F)F)c3)cccn12 [3a, 1-(8-(4-chloro-3-(trifluoromethyl)phenyl)-2-methylimidazo[1,2-a]pyridin-3-yl)ethanone]
- IC50 (VRV-PLA2-VIII): 155 µM
- IC50 (RV venom PLA2): 110 µM
- melting point: 141 to 143 °C

SMILES: CCC(CCc1cccn2c(C(C)=O)c(C)nc12)C(=O)NC1CCCC1 (centres unmarked) [3h, 4-(3-acetyl-2-methylimidazo[1,2-a]pyridin-8-yl)-N-cyclopentyl-2-ethylbutanamide]
- IC50 (VRV-PLA2-VIII): 114 µM
- IC50 (RV venom PLA2): 105 µM
- melting point: 117 to 119 °C

SMILES: COc1cccc(-c2cccn3c(C(C)=O)c(C)nc23)c1 [3e, 1-(8-(3-methoxyphenyl)-2-methylimidazo[1,2-a]pyridin-3-yl)ethanone]
- IC50 (VRV-PLA2-VIII): 65.3 µM
- IC50 (RV venom PLA2): 46.4 µM
- melting point: 116 to 119 °C

SMILES: CC(=O)c1c(C)nc2c(-c3ccccc3)cccn12 [3c, 1-(2-methyl-8-phenylimidazo[1,2-a]pyridin-3-yl)ethanone]
- IC50 (RV venom PLA2): 194 µM
- melting point: 160 to 162 °C

SMILES: CC(=O)c1c(C)nc2c(-c3ccc(C(F)(F)F)cc3)cccn12 [3k, 1-(2-methyl-8-(4-(trifluoromethyl)phenyl)imidazo[1,2-a]pyridin-3-yl)ethanone]
- IC50 (VRV-PLA2-VIII; read-out: IC50 (μM) VRV-PLA2-VIII): > 100 µM
- IC50 (RV venom PLA2): > 500 µM
- melting point: 121 to 123 °C

SMILES: CCc1ccc(-c2cccn3c(C(C)=O)c(C)nc23)cc1 [3l, 1-(8-(4-ethylphenyl)-2-methylimidazo[1,2-a]pyridin-3-yl)ethanone]
- IC50 (VRV-PLA2-VIII): 43.2 µM
- IC50 (RV venom PLA2): > 500 µM
- melting point: 169 to 172 °C

SMILES: CC(=O)c1c(C)nc2c(-c3ccccc3C)cccn12 [3j, 1-(2-methyl-8-(o-tolyl)imidazo[1,2-a]pyridin-3-yl)ethanone]
- IC50 (VRV-PLA2-VIII): 189 µM
- IC50 (RV venom PLA2): 166 µM
- melting point: 157 to 159 °C
